Data reported in patent US10856562B2, “Flavor composition and edible compositions containing same” (MARS, INCORPORATED, priority 2013, dated 2020).
Square brackets hold non-standard residues; d marks the D form. Ends that are not written are not given here. pGlu = O=C1CC[C@@H](C(=O)O)N1

Tested on: panelists
Test: Attribute perception scores of flavor enhancers in solution (Example 6)
Type: in vivo, human
Parameters: key to Metallic / Numbing / Atringent / Salt / Sweet / Sour / Bitter / Umami / Sour, mean evaluation score in solution / Numbing, mean evaluation score in solution / Astringent / Umami FF: 15-point intensity scale, 0 = none, 15 = very strong
Details: for Astringent / Bitter / Flinty/Mineral / Metallic / Numbing / Salt / Sour / Sweet / Umami / Umami FF / Atringent / Mineral/Flinty / Umami/brothy: solution
Description: Descriptive attributes (e.g., taste, flavor and chemical feeling factors) of three use levels of pGlu-Cys (FE-35), pGlu-Cys-Gly (FE-36), pGlu-Cys-Cys (FE-37), pGlu-Cys-Val (FE-38) and pGlu-Val-Cys (UE-30) flavor composition peptides were determined. The three use levels were as follows: 1.0 ppb, 10.0 ppb and 100.0 ppb.
Data was collected for the attributes of the product in-mouth for the use levels according to the following protocol: • The samples were analyzed for flavor by six to nine members of a panel, trained and experienced in flavor evaluation using the Spectrum™ method. Samples were evaluated across multiple panel sessions. • The strength of each attribute was rated on a 15-point scale, where 0=none and 15=very strong. • This scale incorporates the ability to use tenths of a point and therefore has the potential of 150 scale differentiations. • The scale may be expanded beyond 15 points to include extreme ratings if necessary.
A summary of the concentrations of NaCl, water and flavor composition peptides in the solution samples is described in table 24.
The panelists evaluated each sample for the attributes described by table 25.

[1] = 10.0 ppb, mean evaluation score
[2] = 100.0 ppb, mean evaluation score
[3] = Concentration 1, MAX, 15-point scale
[4] = Concentration 1, MEAN, 15-point scale
[5] = Concentration 1, MIN, 15-point scale
[6] = Concentration 10, MAX, 15-point scale
[7] = Concentration 10, MEAN, 15-point scale
[8] = Concentration 10, MIN, 15-point scale
[9] = Concentration 100, MAX, 15-point scale
[10] = Concentration 100, MEAN, 15-point scale
[11] = Concentration 100, MIN, 15-point scale

With [pGlu]-Cys [FE-35] the “Mineral/Flinty aromatic in solution as the concentration increases” value (1.0 to 100 ppb) was “show no distinct pattern”, the “Salt perception level in solution as the concentration increases” value (1.0 to 100 ppb) was “show no distinct pattern” and the “Umami aromatic in solution as the concentration increases” value (1.0 to 100 ppb) was “decreases slightly”. For the same substance, the “Umami feeling factor in solution as the concentration increases” value (1.0 to 100 ppb) was “shows no distinct pattern”, the Astringent (1.0 ppb, mean evaluation score) was 0.0 and the Bitter (1.0 ppb, mean evaluation score) was 0.1. It also gave a Flinty/Mineral (1.0 ppb, mean evaluation score) of 0.9, a Metallic (1.0 ppb, mean evaluation score) of 0.0 and a Numbing (1.0 ppb, mean evaluation score) of 0.0. For the same substance, the Salt (1.0 ppb, mean evaluation score) was 1.8, the Sour (1.0 ppb, mean evaluation score) was 0.0 and the Sweet (1.0 ppb, mean evaluation score) was 0.3. The Umami (1.0 ppb, mean evaluation score) was 1.5, the “Umami FF” value (1.0 ppb, mean evaluation score) was 1.5 and the Astringent [1] was 0.0. The Bitter [1] was 0.0, the Flinty/Mineral [1] was 0.9 and the Metallic [1] was 0.3. The Numbing [1] was 0.0, the Salt [1] was 2.6 and the Sour [1] was 0.0. The Sweet [1] was 0.3, the Umami [1] was 0.8 and the “Umami FF” value [1] was 1.1. It also gave an Astringent [2] of 0.0, a Bitter [2] of 0.0 and a Flinty/Mineral [2] of 0.7. The Metallic [2] was 0.3, the Numbing [2] was 0.0 and the Salt [2] was 2.0. It also gave a Sour [2] of 0.0, a Sweet [2] of 0.2 and a Umami [2] of 0.2. The “Umami FF” value [2] was 1.1, the Atringent [3] was 0.0 and the Bitter [3] was 0.5. It also gave a Metallic [3] of 0.0, a Mineral/Flinty [3] of 1.0 and a Numbing [3] of 0.0. It also gave a Salt [3] of 2.0, a Sour [3] of 0.0 and a Sweet [3] of 1.0. For the same substance, the Umami [3] was 2.0, the Umami/brothy [3] was 2.0 and the Atringent [4] was 0.0. It also gave a Bitter [4] of 0.1, a Metallic [4] of 0.0 and a Mineral/Flinty [4] of 0.9. For the same substance, the Numbing [4] was 0.0, the Salt [4] was 1.8 and the Sour [4] was 0.0. It also gave a Sweet [4] of 0.3, a Umami [4] of 1.5 and a Umami/brothy [4] of 1.5. For the same substance, the Atringent [5] was 0.0, the Bitter [5] was 0.0 and the Metallic [5] was 0.0. The Mineral/Flinty [5] was 0.5, the Numbing [5] was 0.0 and the Salt [5] was 1.5. The Sour [5] was 0.0, the Sweet [5] was 0.0 and the Umami [5] was 1.0. The Umami/brothy [5] was 1.0, the Atringent [6] was 0.0 and the Bitter [6] was 0.0. The Metallic [6] was 2.0, the Mineral/Flinty [6] was 1.2 and the Numbing [6] was 0.0. The Salt [6] was 3.0, the Sour [6] was 0.0 and the Sweet [6] was 1.0. The Umami [6] was 2.0, the Umami/brothy [6] was 2.0 and the Atringent [7] was 0.0. For the same substance, the Bitter [7] was 0.0, the Metallic [7] was 0.3 and the Mineral/Flinty [7] was 0.9. The Numbing [7] was 0.0, the Salt [7] was 2.6 and the Sour [7] was 0.0. For the same substance, the Sweet [7] was 0.3, the Umami [7] was 1.1 and the Umami/brothy [7] was 0.8. It also gave an Atringent [8] of 0.0, a Bitter [8] of 0.0 and a Metallic [8] of 0.0. For the same substance, the Mineral/Flinty [8] was 0.0, the Numbing [8] was 0.0 and the Salt [8] was 2.2. For the same substance, the Sour [8] was 0.0, the Sweet [8] was 0.0 and the Umami [8] was 0.0. For the same substance, the Umami/brothy [8] was 0.0, the Atringent [9] was 0.0 and the Bitter [9] was 0.0. The Metallic [9] was 1.0, the Mineral/Flinty [9] was 1.5 and the Numbing [9] was 0.0. It also gave a Salt [9] of 2.5, a Sour [9] of 0.0 and a Sweet [9] of 1.0. For the same substance, the Umami [9] was 1.5, the Umami/brothy [9] was 1.0 and the Atringent [10] was 0.0. It also gave a Bitter [10] of 0.0, a Metallic [10] of 0.3 and a Mineral/Flinty [10] of 0.7. The Numbing [10] was 0.0, the Salt [10] was 2.0 and the Sour [10] was 0.0. For the same substance, the Sweet [10] was 0.2, the Umami [10] was 1.1 and the Umami/brothy [10] was 0.2. It also gave an Atringent [11] of 0.0, a Bitter [11] of 0.0 and a Metallic [11] of 0.0. It also gave a Mineral/Flinty [11] of 0.0, a Numbing [11] of 0.0 and a Salt [11] of 1.5. For the same substance, the Sour [11] was 0.0, the Sweet [11] was 0.0 and the Umami [11] was 0.0. The Umami/brothy [11] was 0.0.
